Each structure is given as a SMILES string.

Test system in one series: not given
Assay: not given
Conditions: not given
`CCOC(=O)c1ccc2c(-c3ccnc(NC4CCCC4)n3)c(-c3ccc(F)cc3)nn2c1C` [Example 81, Ethyl 3-[2-(cyclopentylamino)-4-pyrimidinyl]-2-(4-fluorophenyl)-7-methylpyrazolo[1,5-a]pyridine-6-carboxylate]: the melting point – broadly, the temperature, or range, at which the solid turns liquid – fell in the range of 155 to 156 °C.

Compound `OCc1ccc2c(-c3ccnc(NC4CCCC4)n3)c(-c3ccc(F)cc3)nn2c1` [Example 33, [3-[2-(Cyclopentylamino)-4-pyrimidinyl]-2-(4-fluorophenyl)pyrazolo-[1,5-a]pyridin-6-yl]methanol] had a melting point of 155 to 156 °C.

The subject of the next series is HSV-1. The series can be described thus: HSV-1 replication in infected Vero 76 cells, DNA hybridization capture assay. The note with it: Human alphaherpesvirus 1; HSV-1 in Vero 76 cells, MOI=0.001, 40-48 hours at 37° C.; read-out: IC50. The class given is cell-based, herpes simplex virus 1. Here is the method: a) Tissue Culture and HSV Infection.
Vero 76 cells were maintained in MEM with Earle's salts, L-glutamine, 8% FBS (Hyclone, A-1111-L) and 100 units/mL Penicillin-100 μg/mL Streptomycin. For assay conditions, FBS was reduced to 2%. Cells are seeded into 96-well tissue culture plates at a density of 5×10^4 cells/well after being incubated for 45 min at 37° C. in the presence of HSV-1 or HSV-2 (MOI=0.001). Test compounds are added to the wells and the plates are incubated at 37° C. for 40-48 hours. Cell lysates are prepared as follows: media was removed and replaced with 150 μL/well 0.2 N NaOH with 1% Igepal CA 630 or NP-40. Plates were incubated up to 14 days at room temperature in a humidified chamber to prevent evaporation.
(b) Preparation of Detection DNA.
For the detection probe, a gel-purified, digoxigenin-labeled, […] PCR fragment of the HSV UL-15 sequence was utilized. PCR conditions included 0.5 μM primers, 180 μM dTTP, 20 μM dUTP-digoxigenin (Boehringer Mannheim 1558706), 200 μM each of dATP, dCTP, and dGTP, 1×PCR Buffer II (Perkin Elmer), 2.5 mM MgCl2, 0.025 units/μL of AmpliTaq Gold polymerase (Perkin Elmer), and 5 ng of gel-purified HSV DNA per 100 μL Extension conditions were 10 min at 95° C., followed by 30 cycles of 95° C. for 1 min, 55° C. for 30 sec, and 72° C. for 2 min. The amplification was completed with a 10-min incubation at 72° C. Primers were selected to amplify a 728 bp probe spanning a section of the HSV1 UL15 open reading frame (nucleotides 249-977). Single-stranded transcripts were purified with Promega M13 Wizard kits. The final product was mixed 1:1 with a mixture of 6 M GuSCN, 100 mM EDTA and 200 μg/mL herring sperm DNA and stored at 4° C.
(c) Preparation of Capture Plates.
The capture DNA plasmid (HSV UL13 region in pUC) was linearized by cutting with Xba I, denatured for 15 min at 95° C. and diluted immediately into Reacti-Bind DNA Coating Solution (Pierce, 17250, diluted 1:1 with TE buffer, pH 8) at 1 ng/μL. 75 μL/well were added to Corning (#3922 or 9690) white 96-well plates and incubated at room temperature for at least 4 hrs before washing twice with 300 μL/well 0.2×SSC/0.05% Tween-20 (SSC/T buffer). The plates were then incubated overnight at room temperature with 150 μL/well 0.2 N NaOH, 1% IGEPAL and 10 μg/mL herring sperm DNA.
Twenty-seven (27) μL of cell lysate was combined with 45 μL of hybridization solution (final concentration: 3M GuSCN, 50 mM EDTA, 100 μg/ml salmon sperm DNA, 5×Denhardt's solution, 0.25×APE, and 5 ng of the digoxigenin-labeled detection probe). APE is 1.5 M NH4-acetate, 0.15 M NH4H2 phosphate, and 5 mM EDTA adjusted to pH 6.0. Mineral oil (50 μL) was added to prevent evaporation. The hybridization plates were incubated at 95° C. for 10 minutes to denature the DNA, then incubated at 42° C. overnight. The wells were washed 6× with 300 μL/well SSC/T buffer then incubated with 75 μL/well anti-digoxigenin-HRP-conjugated antibody (Boehringer Mannheim 1207733, 1:5000 in TE) for 30 min at room temperature. The wells were washed 6× with 300 μL/well with PBS/0.05% Tween-20 before 75 μL/well SuperSignal LBA substrate (Pierce) was added. The plates were incubated at room temperature for 30 minutes and chemiluminescence was measured in a Wallac Victor reader.
The following results were obtained for HSV-1.
As for `OCc1ccc2c(-c3ccnc(NC4CCCC4)n3)c(-c3ccc(F)cc3)nn2c1` [Example 33, [3-[2-(Cyclopentylamino)-4-pyrimidinyl]-2-(4-fluorophenyl)pyrazolo-[1,5-a]pyridin-6-yl]methanol], the IC50 (commonly the concentration that gives 50% inhibition) came to 2.5 µM.

As to `COCCNC(=O)c1ccc2c(-c3ccnc(NC4CC4)n3)c(-c3ccc(OC)cc3)nn2c1` [Example 98, 3-[2-(Cyclopropylamino)pyrimidin-4-yl]-N-(2-methoxyethyl)-2-(4-methoxyphenyl)pyrazolo[1,5-a]pyridine-6-carboxamide], the IC50 is 1.1 µM. Still for that read-out and setting: as for `NC(=O)c1ccc2c(-c3ccnc(NCCCO)n3)c(-c3ccc(F)cc3)nn2c1` [Example 25, 2-(4-Fluorophenyl)-3-(4-(2-(3-hydroxypropyl)amino)pyrimidinyl)-6-pyrazolo-[1,5-a]pyridinylcarboxamide], the figure is 5.5 µM. On to `CCCCNc1nccc(-c2c(-c3ccc(F)cc3)nn3c(OCC(F)(F)F)cccc23)n1` [Example 60, N-Butyl-4-[2-(4-fluorophenyl)-7-(2,2,2-trifluoroethoxy)pyrazolo[1,5-a]pyridin-3-yl]-2-pyrimidinamine], for which the IC50 was 5 µM. The same measure, in the same setting: as for `CCCCCCNc1cc(-c2c(-c3ccc(F)cc3)nn3ccccc23)ccn1` [Example 5, 4-[2-(4-Fluorophenyl)pyrazolo[1,5-a]pyridin-3-yl]-N-hexyl-2-pyridinamine], the figure is 5 µM; as for `N#Cc1ccc2c(-c3ccnc(NC4CC4)n3)c(-c3ccc(F)cc3)nn2c1` [Example 24, N-Cyclopropyl-4-[6-cyano-2-(4-fluorophenyl)pyrazolo[1,5-a]pyridin-3-yl]-2-pyrimidinamine], 0.2 µM. Still for that read-out and setting: in the case of `CCCCOc1cc(-c2c(-c3ccc(F)cc3)nn3ccccc23)ccn1` [Example 91, 3-(2-Butoxypyridin-4-yl)-2-(4-fluorophenyl)pyrazolo[1,5-a]pyridine] it was 11 µM; in that of `COC(=O)c1ccc2c(-c3ccnc(NCCCOC(C)=O)c3)c(-c3ccc(F)cc3)nn2c1` [Example 45, Methyl 3-(2-{[3-(acetyloxy)propyl]-amino}-4-pyridinyl)-2-(4-fluorophenyl)pyrazolo[1,5-a]pyridine-6-carboxylate], 2.6 µM. On to `Cc1c(C(=O)NC2CC2)ccc2c(-c3ccnc(NC4CCCC4)n3)c(-c3ccc(F)cc3)nn12` [Example 83, 3-[2-(Cyclopentylamino)-4-pyrimidinyl]-N-cyclopropyl-2-(4-fluorophenyl)-7-methylpyrazolo[1,5-a]pyridine-6-carboxamide], for which the IC50 is 1 µM.

For `Fc1ccc(-c2nn3ccc(Cl)cc3c2-c2nc(NC3CCCC3)ncc2Br)cc1` [Example 93, 5-Bromo-4-[5-chloro-2-(4-fluorophenyl)pyrazolo[1,5-a]pyridin-3-yl]-N-cyclopentyl pyrimidin-2-amine], the IC50 amounted to 2.6 µM. In the case of `Fc1ccc(-c2nn3ccccc3c2-c2ccnc(NCc3cccnc3)c2)cc1` [Example 7, 4-[2-(4-Fluorophenyl)pyrazolo[1,5-a]pyridin-3-yl]-N-(3-pyridinylmethyl)-2-pyridinamine], the IC50 stood at 6.2 µM. As to `COc1ccc(-c2nn3cc(C(F)(F)F)ccc3c2-c2ccnc(NC3CC3)n2)cc1` [Example 95, N-Cyclopropyl-4-[2-(4-methoxyphenyl)-6-(trifluoromethyl)pyrazolo[1,5-a]pyridin-3-yl]pyrimidin-2-amine], the IC50 worked out at 27 µM. The same measure, in the same setting: as for `NCCCNc1cc(-c2c(-c3ccc(F)cc3)nn3ccccc23)ccn1` [Example 4, N^1-4-[2-(4-Fluorophenyl)pyrazolo[1,5-a]pyridin-3-yl]-2-pyridinyl-1,3-propanediamine], the figure is 20 µM; as for `OCCCNc1cc(-c2c(-c3ccc(F)cc3)nn3ccccc23)c(Br)cn1` [Example 44, 3-({5-Bromo-4-[2-(4-fluorophenyl)-pyrazolo[1,5-a]pyridin-3-yl]-2-pyridinyl}amino)-1-propanol], 6.3 µM; as for `NCCCNc1cc(-c2c(-c3ccc(F)cc3)nn3cc(Br)ccc23)ccn1` [Example 15, N-(3-Aminopropyl)-4-[6-bromo-2-(4-fluorophenyl)-pyrazolo[1,5-a]pyridin-3-yl]-2-pyridinamine], 4 µM. Consider `COc1ccc(-c2nn3ccc(Cl)cc3c2-c2ccnc(NC3CCCC3)n2)cc1` [Example 38, 4-[5-Chloro-2-(4-methoxyphenyl)pyrazolo[1,5-a]pyridin-3-yl]-N-cyclopentyl-2-pyrimidinamine], for which the IC50 stood at 3.8 µM. Still for that read-out and setting: in the case of `Fc1ccc(-c2nn3cc(CNC4CCCC4)ccc3c2-c2ccnc(NC3CCCC3)n2)cc1` [Example 35, N-Cyclopentyl-4-[6-[(cyclopentylamino)methyl]-2-(4-fluorophenyl)-pyrazolo[1,5-a]pyridin-3-yl]-2-pyrimidinamine] it was 4.5 µM; in that of `CN(C)c1cc(-c2c(-c3ccc(F)cc3)nn3ccccc23)ccn1` [Example 11, 4-[2-(4-Fluorophenyl)pyrazolo[1,5-a]pyridin-3-yl]-N,N-dimethyl-2-pyridinamine], 4.4 µM; in that of `CC(C)Nc1cc(-c2c(-c3ccc(F)cc3)nn3cc(C(F)(F)F)ccc23)ccn1` [Example 13, 4-[2-(4-Fluorophenyl)-6-trifluoromethylpyrazolo[1,5-a]pyridin-3-yl]-N-isopropyl-2-pyridinamine], 1.2 µM. As to `CCCCNc1cc(-c2c(-c3ccc(F)cc3)nn3ccccc23)ccn1` [Example 2, N-Butyl-4-[2-(4-fluorophenyl)pyrazolo[1,5-a]pyridin-3-yl]-2-pyridinamine], the IC50 was 1.6 µM.

The values are drawn from patent US20050107400A1, “Use of pyrazolopyridines as therapeutic compounds” (priority 2001, published 2005).
